# Results published in US6028107A, “Orthomolecular medical use of L-citrulline for vasoprotection, relaxative smooth muscle tone and cell protection” (priority 1997, dated 2000).
# Entries after “also recorded” stand apart in the source; their conditions may differ.
# Columns and labels:
# [1] = Plasma ultrafiltrate L-arginine level after oral L-citrulline (Example 1); type: in vivo, human
# Experimental: A novel […] method for the quantitative assay of free L-arginine in blood plasma was developed. The method measures the color product from monosubstituted guanidines without and with L-arginase incubation to destroy the arginine and the potential guanido color product that would be derived from L-arginine. The photometric decrease in guanido color product measures specifically the concentration of L-arginine. The L-arginine methodology was applied to ultrafiltrates of blood plasma after ultrafiltrations of separated plasma samples were done at 4° Celsius.
# Blood plasma levels after 9 to 10 hours of overnight fasting averaged 83.0±1.1 μM (mean±SD of 3 determinations). Two hours after ingestion of 3.0 grams of L-citrulline in capsular form, plasma L-arginine level rose by […] to 132.7 μM. Overnight fasting plasma levels of L-arginine measured 125.2, 98.1, 90.8, 114.2, and 120.0 μM after ingestion of L-citrulline for 6 days at 6.0 grams, for 13 days at 2.4 grams, for 6 days at 3.4 grams, for 7 days at 6.8 grams, and for 2 days at 8.5 grams, respectively, in 2 divided doses (morning and nightly).
# [2] = Total bleeding time, forearm template method (Example 2); type: in vivo, human; conditions: after 4 weeks of 5.4 grams daily in 2 divided doses
# Experimental: The same subject that was studied in Example 1 was studied by total bleeding time determinations before and during ingestion of daily doses of L-citrulline, in two divided subdoses. Forearm bleeding times were done by 3 to 5 mm cuts about 1 mm deep made perpendicular to the fold of the elbow during template methodology and a sphygmomanometer cuff maintained near 40 mm Hg pressure. Control bleeding times were 51/2 minutes. Bleeding time rose to 131/2 minutes after 2 days of ingestion of 8.5 grams daily. Bleeding time was prolonged at 13 minutes after 4 weeks of ingestion of 5.4 grams of L-citrulline daily in 2 divided doses.
# migraine pains = experiment: Migraine attack, oral L-citrulline capsules (Example 4); type: in vivo, human; conditions: 2.7 grams, again about 1 hour later, third dose 6 hours later
# Experimental: […] Their body weight was 59 kg. The subject gave a history of migraine pains with and without aura for about 15 years. Currently, the migraine pains were recurring about once to a few times weekly. Their parent had experienced migraine headaches for many years.
# Shortly after the onset of a severe headache attack, the subject ingested 2.7 grams of L-citrulline, followed by another 2.7 grams about 1 hour later. They ingested a third dose of the same amount 6 hours later.
# [3] = Tolerability during the study of Example 1; type: in vivo, human
# From the text: They remained on their usual regular diet and continued working during the study.
# [4] = plasma-borne; cited from earlier work
# [5] = intestinal-derived, portal venous blood; cited from earlier work
# human platelets = conditions: 300 μM extracellular; L-arginine 30 μM; cited from earlier work
# hippocampal brain tissue = conditions: extracellular creatine increased by 3 mM; cited from earlier work
# muscle = conditions: oral supplementation daily; cited from earlier work
# migraine aura = conditions: inhalation of small amounts; cited from earlier work
# arterial injury = conditions: 2.25% in the drinking water, long-term; cited from earlier work
# platelet activity = conditions: cited from earlier work
# [6] = oral 3-gram single doses, healthy humans; cited from earlier work
# [7] = rats, parenteral injection; cited from earlier work
# [8] = cited from earlier work
# [9] = system: purified endothelial c-NOS; conditions: purified enzyme in vitro; read-out: apparent Michaelis constant (Km); cited from earlier work
# endothelial c-NOS [10] = conditions: L-glutamine 600 μM; above 10 μM to 1,000 μM and more L-arginine; cited from earlier work
# [11] = system: endothelium-dependent vasodilation; conditions: infusion, hypercholesterolemia; cited from earlier work
# [12] = system: glomerular hyperfiltration; conditions: long-term oral, marked amounts; cited from earlier work
# uterine muscle strips = conditions: added to extracellular fluid; cited from earlier work
# spermatocytes = conditions: oral 4 to 20 grams daily; cited from earlier work
# [13] = system: oligemic vasoconstriction; conditions: rats; cited from earlier work
# creatine biosynthesis = conditions: dietary, man; cited from earlier work
# endothelial c-NOS [14] = conditions: plasma L-arginine above normal fasting about 75 to 90 μM; cited from earlier work
smiles,measurement,setting,value
NC(=O)NCCC[C@H](N)C(=O)O [L-citrulline],rise of plasma L-arginine level,"[1]; 2 hours after single oral 3.0 grams, capsular form",62.4%
same,elevation of blood plasma L-arginine versus ingestion of equivalent amounts of L-arginine,[1]; comparison with L-arginine as single amino acid or in protein meals,more efficient and longer lasting
same,blood plasma levels of L-arginine after overnight fasting 9 to 10 hours,[1]; daily dosage in two divided subdoses,greater blood plasma levels of L-arginine even after overnight fasting
same,blood plasma concentrations of free L-arginine,"[1]; single oral doses of 3.0 grams or more, capsule form",promptly raised to much higher levels
same,Bleeding time,[2],13 min
same,migraine pain,migraine pains,markedly lessened in intensity and in duration
same,nausea during the migraine attack,migraine pains,Much less nausea
same,adverse symptoms or untoward signs,[3],No adverse symptoms or untoward signs were experienced
same,blood-brain barrier passage,[4],readily passes the blood-brain barrier
same,liver uptake,[5],Without appreciable liver uptake
NCCCC[C@H](N)C(=O)O [L-lysine],effect on L-arginine uptake,human platelets,inhibitory
CN(CC(=O)O)C(=N)N [creatine],neurocyte viabilities after anoxic periods,hippocampal brain tissue,greater neurocyte viabilities
same,neuronal free creatine and phosphocreatine levels,hippocampal brain tissue,large increases in neuronal free creatine and phosphocreatine levels
same,muscle fatigue with physical exercise,muscle,lessened muscle fatigue
same,muscle stores of free creatine and phosphocreatine,muscle,greater muscle stores of free creatine and phosphocreatine
CCCCCON=O [amyl nitrite],migraine aura,migraine aura,temporarily reversed migraine aura in some cases
Cl.N=C(N)NCCC[C@H](N)C(=O)O [L-arginine hydrochloride],increase of plasma arginine levels,arterial injury,about 2.6 times
same,neoendothelium-dependent arterial muscle relaxation,arterial injury,enhanced neoendothelium-dependent arterial muscle relaxation
same,thickening after arterial injury,arterial injury,reduced thickening
"CC(=O)Oc1ccccc1C(=O)O [aspirin, acetylsalicylic acid]",total bleeding time,platelet activity; low-dose / small therapeutic doses orally,prolongs the total bleeding time; also recorded: prolonged
same,platelet activity,platelet activity; low-dose intake,inhibits platelet activity
N=C(N)NCCC[C@H](N)C(=O)O [L-arginine],plasma citrulline levels,[6],without a change in plasma citrulline levels
same,plasma half-life,[7],about 1 hour
same,time of peak plasma arginine level,[8]; 24.8 grams of L-arginine (30 grams of arginine hydrochloride),about 1 hour
same,time to return to near fasting values,[8]; 24.8 grams of L-arginine,3 h
same,peak plasma arginine relative to fasting values,"[8]; 24.8 grams of L-arginine, fasting 90±6 μM",about 3.6 times
same,Km,[9],~6 µM
same,endothelial production of nitric oxide by c-NOS versus extracellular L-arginine,endothelial c-NOS [10],"directly dependent upon the extracellular concentrations of L-arginine above 10 μM to levels of 1,000 μM and more without apparent saturation of the enzyme"
same,impaired endothelium-dependent vasodilation,[11],impaired endothelium-dependent vasodilation is corrected
same,glomerular hyperfiltration and abnormal filtration fraction hemodynamics,[12],prevents the glomerular hyperfiltration and abnormal filtration fraction hemodynamics
same,proteinuria,[12],ameliorates the proteinuria
same,muscle quiescence,uterine muscle strips,muscle quiescence
same,muscle relaxation,uterine muscle strips,dose-dependent muscle relaxation
same,nitric oxide generation,uterine muscle strips,nitric oxide generation
same,total sperm counts and motility rates,spermatocytes,may improve total sperm counts and motility rates
same,oligemic vasoconstriction following cortical spreading depression,[13],reduces the oligemic vasoconstriction
same,creatine biosynthesis and pools of creatine and phosphocreatine in muscle and nerve,creatine biosynthesis,leads to more creatine biosynthesis and slowly expansible pools of creatine and phosphocreatine
same,endothelial nitric oxide production,endothelial c-NOS [14],augments endothelial nitric oxide production
NC(=O)CC[C@H](N)C(=O)O [L-glutamine],effect on L-arginine uptake,human platelets,inhibitory
NCCC[C@H](N)C(=O)O [L-ornithine],effect on L-arginine uptake,human platelets,inhibitory
